Assay results: patent US12083114B2, “Inhibitors of SARM1 in combination with neuro-protective agents” (Disarm Therapeutics, Inc., priority 2018, dated 2024)

Test system: DRG axons
Test: Axon degeneration assay: SARM1 inhibitor with DLK inhibitor, mouse DRG drop culture, manual axotomy
Format: cell-based
Settings: 16 hours post-axotomy
Procedure: Mouse dorsal root ganglion neurons (DRGs) were dissected out of E12.5 CD1 mice (50 ganglia per embryo) and incubated with 0.5% Trypsin solution containing 0.02% EDTA (Gibco) at 37° C. for 15 min. The cells were then triturated by gentle pipetting and washed 3 times with DRG growth medium (Neurobasal medium (Gibco) containing 2% B27 (Invitrogen), 100 ng/ml 2.5S NGF (Harland Bioproducts), […] 5-fluoro-2′ deoxyuridine (Sigma), penicillin, and streptomycin). Cells were suspended in the DRG growth medium. DRG drop cultures were created by spotting 5000 cells/well into the center of each well of a 96-well tissue culture plate coated with poly-D-Lysine (0.1 mg/ml; Sigma) and laminin ([…]; Invitrogen). Cells were allowed to adhere to the plates in a humidified tissue culture incubator (5% CO2) for 15 min and then DRG growth medium was gently added ([…] well). DRG neurons were maintained in neurobasal medium supplemented with L-glutamine (Invitrogen), 2% (vol/vol) B27 (Invitrogen), 50 ng/mL NGF (Harlan Laboratories), and 1 μM 5-fluoro-2′deoxyuridine plus 1 μM uridine (Sigma) to induce death of mitotic cells. DRG neurons were then seeded on plates pre-coated with poly-D-lysine and laminin.
2 hours prior to axotomy, DRG cultures were treated with SARM1 inhibitors, in the continued presence of the DLK inhibitor. […] Isoquinoline SARM1 inhibitors tested included I-26 and I-86, while isothiazole SARM1 inhibitors tested included II-6 and II-32. The SARM1 inhibitors were tested using concentrations ranging from 0.1 to 30 μM.
A manual axotomy was performed at time 0 by transecting the axons of the DRG neurons with a blade. After the axotomy, DRG cultures remained exposed to the SARM1 inhibitor alone, DLK inhibitor alone, or the combination of SARM1 inhibitor and DLK inhibitor. At 16 hours, DRG cultures were fixed in a buffered solution containing 1% PFA and sucrose and stored at 4° C. prior to imaging. Bright-field images of DRG axons and cell bodies were collected using the 20× water immersion lens of a Phenix automated confocal microscope (PerkinElmer) and quantitation of axonal damage was performed using in-house developed scripts (Acapella, PerkinElmer). The effect of DLK inhibitor alone in protecting distal axons from fragmentation was determined at concentrations of 100 nM and 300 nM. The effect of combining the DLK inhibitor with varying concentrations of a SARM1 inhibitor was compared to the individual protective effects of either 100 nM or 300 nM of DLK inhibitor alone or an equivalent concentration of a SARM1 inhibitor alone.

[1] = SARM1 inhibitor alone, 1.1 μM, FIG. 1B/2B

SMILES: N#Cc1ccnc(Nc2cc(C3CCN(C4COC4)CC3)cc(N3CCC(F)(F)C3)n2)c1 [DLK inhibitor, 2-((6-(3,3-difluoropyrrolidin-1-yl)-4-(1-(oxetan-3-yl)piperidin-4-yl)pyridin-2-yl)amino)isonicotinonitrile, reference compound]
- axonal protection (degeneration index of DRG axons) (100 nM DLK inhibitor alone): no axonal protection
- axonal protection (degeneration index of DRG axons) (300 nM DLK inhibitor alone): modest but statistically significant level of axonal protection

SMILES: Ic1cccc2cnccc12 [I-26]
- axonal protection (degeneration index of DRG axons) [1]: modest level of protection
- axonal protection (degeneration index of DRG axons) (SARM1 inhibitor alone, 1.1, 3.3, 10 or 30 μM (all tested concentrations), FIG. 1A): significant axonal protection over all tested concentrations

SMILES: COc1cc(Br)c2ccncc2c1 [I-86]
- axonal protection (degeneration index of DRG axons) [1]: modest level of axonal protection
- axonal protection (degeneration index of DRG axons) (SARM1 inhibitor alone, 1.1 μM, FIG. 2A): a small, but statistically significant amount of axonal protection

SMILES: N#Cc1c(O)nsc1Nc1ccccc1C(F)(F)F [II-6]
- axonal protection (degeneration index of DRG axons) (SARM1 inhibitor alone, 3.3 μM, FIG. 3B): modest level of protection
- axonal protection (degeneration index of DRG axons) (SARM1 inhibitor alone, 1.1 or 3.3 μM, FIG. 3A): modest, but statistically significant axonal protection

SMILES: COCCn1sc(Nc2ccccc2C(F)(F)F)c(C#N)c1=O [II-32]
- axonal protection (degeneration index of DRG axons) (SARM1 inhibitor alone, 0.11, 0.33 or 1.1 μM, FIG. 4A): modest but not statistically significant axonal protection
- axonal protection (degeneration index of DRG axons) (SARM1 inhibitor alone, 0.11, 0.33 or 1.1 μM, FIG. 4B): only slight and not statistically significant protection
